Measured values reported in ChEMBL document CHEMBL1201862, “PubChem BioAssay data set” (2004).
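Briefly, cells in 96-well plates were exposed to five compound concentrations for 48 h, and endpoints were estimated by linear interpolation. At the GI50, growth is halved.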 Active and inactive are the calls of the source. Cut-off read from the data, not from the text of the source: active = GI50 up to about 1.1 µM and inactive = higher.

Legend:
Experiment in all cases: inhibition of tumour cell growth, NCI panel, 48 h
SNB-19 = test system: SNB-19
SR = test system: SR
HT-29 = test system: HT-29
HOP-62 = test system: HOP-62
Malme-3M = test system: Malme-3M
DMS-114 = test system: DMS-114
SF-268 = test system: SF-268
KM12 = test system: KM12
TK-10 = test system: TK-10
SF-539 = test system: SF-539
OVCAR-4 = test system: OVCAR-4
NCI-H226 = test system: NCI-H226
SK-OV-3 = test system: SK-OV-3
SK-MEL-5 = test system: SK-MEL-5
M14 = test system: M14
COLO 205 = test system: COLO 205
DU-145 = test system: DU-145
T47D = test system: T47D
MDA-MB-231 = test system: MDA-MB-231
BT-549 = test system: BT-549

Measured: GI50

COC(=O)C1=CC2C(=O)OC1CC2C#N (stereo unspecified)
inactive: SNB-19 > 100 µM | SR > 100 µM | HT-29 > 100 µM | HOP-62 > 100 µM | Malme-3M > 100 µM | DMS-114 > 100 µM | SF-268 > 100 µM | KM12 > 100 µM | TK-10 > 100 µM | SF-539 > 100 µM | OVCAR-4 > 100 µM | NCI-H226 > 100 µM | SK-OV-3 > 100 µM | SK-MEL-5 > 100 µM | M14 > 100 µM | COLO 205 > 100 µM

CSC(=Nc1nnc(-c2ccc([N+](=O)[O-])cc2)s1)SC
inactive: DU-145 > 100 µM | SNB-19 23.9 µM | SR > 100 µM | HT-29 > 100 µM | HOP-62 20.1 µM | Malme-3M > 74.1 µM | DMS-114 25.9 µM | T47D 17.8 µM | SF-268 16.7 µM | KM12 > 94.8 µM | TK-10 16.6 µM | SF-539 18.1 µM | MDA-MB-231 > 58.5 µM | OVCAR-4 45.8 µM | NCI-H226 33.7 µM | SK-OV-3 27.6 µM | BT-549 > 77.4 µM | SK-MEL-5 55.7 µM | M14 > 90.6 µM | COLO 205 > 100 µM

COC1(C)Cc2c(c(C)c(O)c3c2C(=O)C=C(Cl)C3=O)O1 (stereo unspecified)
inactive: DU-145 91.4 µM | SNB-19 > 100 µM | SR 3.89 µM | HT-29 28.9 µM | HOP-62 > 100 µM | Malme-3M 13.5 µM | DMS-114 28 µM | T47D 13.4 µM | SF-268 > 88.1 µM | KM12 > 100 µM | TK-10 22.7 µM | SF-539 > 100 µM | MDA-MB-231 16.1 µM | OVCAR-4 41.3 µM | NCI-H226 > 100 µM | SK-OV-3 > 100 µM | BT-549 > 100 µM | SK-MEL-5 40.8 µM | M14 21.8 µM | COLO 205 18.2 µM
